ChEMBL document CHEMBL4828773, “Novel HDAC1 and HDAC2 Inhibitors for Treating Diseases” (ACS Med Chem Lett, 2021)

Experiments:
Histone deacetylase 2 = Histone deacetylase 2 (Homo sapiens, UniProt Q92769); experiment: Inhibition of human HDAC2 preincubated for 10 mins followed by tripeptide substrate addition and measured after 60 mins by fluorescence microplate reader assay
Histone deacetylase 1 = Histone deacetylase 1 (Homo sapiens, UniProt Q13547); experiment: Inhibition of HDAC1 (unknown origin) preincubated for 10 mins followed by tripeptide substrate addition and measured after 60 mins by fluorescence microplate reader assay
Sequence of Histone deacetylase 1 (Q13547 whole entry): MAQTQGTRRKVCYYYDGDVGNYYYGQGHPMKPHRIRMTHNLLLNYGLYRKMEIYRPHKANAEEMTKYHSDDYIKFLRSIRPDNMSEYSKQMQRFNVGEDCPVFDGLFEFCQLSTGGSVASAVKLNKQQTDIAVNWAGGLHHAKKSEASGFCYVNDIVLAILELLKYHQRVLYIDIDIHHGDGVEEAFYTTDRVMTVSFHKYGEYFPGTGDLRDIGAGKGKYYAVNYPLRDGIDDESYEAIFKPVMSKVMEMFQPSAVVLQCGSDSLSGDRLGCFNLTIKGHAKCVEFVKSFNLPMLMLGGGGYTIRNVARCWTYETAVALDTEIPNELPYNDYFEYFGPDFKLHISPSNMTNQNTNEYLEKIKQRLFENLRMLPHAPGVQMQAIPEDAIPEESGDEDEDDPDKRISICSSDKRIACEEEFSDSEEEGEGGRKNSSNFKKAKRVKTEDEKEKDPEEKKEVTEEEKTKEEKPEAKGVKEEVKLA

Sequence of Histone deacetylase 2 (Q92769 whole entry): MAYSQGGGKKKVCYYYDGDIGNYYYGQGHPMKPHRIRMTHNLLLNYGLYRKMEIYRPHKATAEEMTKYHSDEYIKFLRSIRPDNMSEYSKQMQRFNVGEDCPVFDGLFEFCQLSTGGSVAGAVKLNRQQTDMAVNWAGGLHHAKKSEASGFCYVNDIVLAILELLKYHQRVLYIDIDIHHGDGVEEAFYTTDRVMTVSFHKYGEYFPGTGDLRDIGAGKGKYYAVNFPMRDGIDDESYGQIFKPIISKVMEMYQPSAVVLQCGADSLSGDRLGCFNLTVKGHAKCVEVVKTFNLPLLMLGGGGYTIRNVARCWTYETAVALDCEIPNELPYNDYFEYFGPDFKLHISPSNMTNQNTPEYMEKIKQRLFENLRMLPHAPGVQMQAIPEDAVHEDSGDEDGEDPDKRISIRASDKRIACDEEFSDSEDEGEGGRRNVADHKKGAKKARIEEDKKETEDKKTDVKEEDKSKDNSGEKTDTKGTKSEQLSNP

Row | SMILES | IC50 (Histone deacetylase 2) [nM] | IC50 (Histone deacetylase 1) [nM]
1 | CN1C(=O)Cc2cc(C(=O)Nc3cc(-c4cccs4)ccc3N)ccc21 | 10 | 5
2 | CN(C)CCN(C)c1ccc2cc(C(=O)Nc3cc(-c4cccs4)ccc3N)cnc2c1 | 15 | 
3 | CN(C)CCNc1ccc2cc(C(=O)Nc3cc(-c4cccs4)ccc3N)ncc2c1 | 5 | 
4 | Nc1ccc(-c2cccs2)cc1NC(=O)c1ccc2c(c1)CC(=O)N2CCN1CCOCC1 | 5 | 1
5 | Nc1ccc(-c2ccccc2)cc1NC(=O)c1ccc2c(c1)ncn2CCN1CCOCC1 | 10 | 1
6 | Nc1ccc(-c2cccs2)cc1NC(=O)c1ccc2c(c1)CC(=O)N2CCCN1CCOCC1 | 5 | 1
